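How tested: cells in 96-well plates exposed to compound for 48 hours at five concentrations. TGI: total growth inhibition.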
Tests used:
Experiment in all cases: NCI-60 cell line screen, 48 h
OVCAR-4 ovarian = system: OVCAR-4 ovarian
ACHN renal = system: ACHN renal
UACC-257 melanoma = system: UACC-257 melanoma
OVCAR-5 ovarian = system: OVCAR-5 ovarian
MDA-MB-435 = system: MDA-MB-435
A549 NSCLC = system: A549 NSCLC
T-47D breast = system: T-47D breast
U251 CNS = system: U251 CNS
SNB-19 CNS = system: SNB-19 CNS
SF-539 CNS = system: SF-539 CNS
HS 578T breast = system: HS 578T breast
CCRF-CEM leukemia = system: CCRF-CEM leukemia
SK-MEL-2 melanoma = system: SK-MEL-2 melanoma
SF-268 CNS = system: SF-268 CNS
MCF7 breast = system: MCF7 breast
HT29 colon = system: HT29 colon
HCT-15 colon = system: HCT-15 colon
SK-OV-3 ovarian = system: SK-OV-3 ovarian
IGROV1 ovarian = system: IGROV1 ovarian
SK-MEL-28 melanoma = system: SK-MEL-28 melanoma
UACC-62 melanoma = system: UACC-62 melanoma
MDA-MB-231 breast = system: MDA-MB-231 breast
BT-549 breast = system: BT-549 breast
SN12C renal = system: SN12C renal
HL-60(TB) leukemia = system: HL-60(TB) leukemia
SW-620 colon = system: SW-620 colon
COLO 205 colon = system: COLO 205 colon
A498 renal = system: A498 renal
M14 melanoma = system: M14 melanoma
CAKI-1 renal = system: CAKI-1 renal
HCT-116 colon = system: HCT-116 colon
MALME-3M melanoma = system: MALME-3M melanoma
PC-3 prostate = system: PC-3 prostate
OVCAR-8 ovarian = system: OVCAR-8 ovarian
SNB-75 CNS = system: SNB-75 CNS
NCI-H522 lung = system: NCI-H522 lung
MOLT-4 leukemia = system: MOLT-4 leukemia
HOP-92 NSCLC = system: HOP-92 NSCLC
NCI-H23 lung = system: NCI-H23 lung
TK-10 renal = system: TK-10 renal
SK-MEL-5 melanoma = system: SK-MEL-5 melanoma
DU-145 prostate = system: DU-145 prostate
HOP-62 NSCLC = system: HOP-62 NSCLC
SF-295 CNS = system: SF-295 CNS
OVCAR-3 ovarian = system: OVCAR-3 ovarian
EKVX NSCLC = system: EKVX NSCLC
SR leukemia = system: SR leukemia
RXF 393 renal = system: RXF 393 renal
786-0 renal = system: 786-0 renal
MDA-N = system: MDA-N
RPMI-8226 leukemia = system: RPMI-8226 leukemia
LOX IMVI melanoma = system: LOX IMVI melanoma
NCI-H460 lung = system: NCI-H460 lung
KM12 colon = system: KM12 colon
NCI-H226 lung = system: NCI-H226 lung
HCC-2998 colon = system: HCC-2998 colon
K-562 leukemia = system: K-562 leukemia
UO-31 renal = system: UO-31 renal
NCI/ADR-RES ovarian = system: NCI/ADR-RES ovarian

Measured: TGI

C/C(=C1/N=C(c2ccccc2)OC1=O)c1cccs1
not listed: UO-31 renal | NCI/ADR-RES ovarian
> 100 µM: all other assays above

CCC(c1ccc(N(C)C)cc1)C1NC(=S)NC1=O (stereo not given)
46.3 µM: HL-60(TB) leukemia
59.6 µM: K-562 leukemia
not listed: SK-MEL-2 melanoma | UACC-62 melanoma | BT-549 breast | PC-3 prostate | HOP-62 NSCLC | OVCAR-3 ovarian
> 100 µM: all other assays above
